For the assay, the system named is human embryonic stem cell derived neural stem cells (NSCs). The assay can be described thus: Neurogenesis assay: neural stem cell proliferation assay. Particulars: 96 h, compound concentration at which 150% activity of control (100%) is reached, increase in cells based on ATP levels (CellTiterGlo), 4 days incubation, dose response 8 μM to 8 nM. The protocol:
Neural Stem Cell Proliferation Assay
Neurogenic properties of small molecules are determined based on the proliferation of human embryonic stem cell derived neural stem cells (NSCs) which were derived via a dual smad inhibition as previously described (Chambers, S. M., et al., Highly efficient neural conversion of human ES and iPS cells by dual inhibition of SMAD signaling, Nature biotechnology, 2009 27(3): p. 275-80.).
Compounds response is measured by the increase in cells based on ATP levels (Promega:CellTiterGlo®) after an incubation period of 4 days. NSCs are thawed and expanded over 3 passages. On the 14th day, NSCs are seeded in Polyornithin/Laminin coated 384 well plates at a cell density of 21,000 cells/cm^2 in a media volume of 38 μl.
4 hours after cell seeding, compound solutions are added at a volume of 2 μl. Stock solutions of the compounds (water, 5% DMSO) are diluted to obtain a dose response (11 points, dilution factor is 2), ranging from 8 μM to 8 nM. Controls are run to consistently determine the neurogenic properties of the cells:
Negative (neutral) control is cell culture Media (final DMSO concentration: 0.25%).
1. cell culture Media+100 ng/ml FGF2 (final DMSO concentration: 0.1%)
2. cell culture Media+20 ng/ml EGF (final DMSO concentration: 0.1%)
3. cell culture Media+100 ng/ml Wnt3a (final DMSO concentration: 0.1%)
After 4 days incubation at 37° C., 5% CO2, the amount of ATP per well is quantified. The ATP concentration is proportional to the cell number. ATP is quantified by using the Promega CellTiterGlo® kit. The CellTiterGlo® reagents contain a cell lysis buffer, a thermo stable luciferase (UltraGlo™ recombinant luciferase), magnesium and luciferin. Luciferin reacts with ATP producing oxyluciferin, AMP and light. The luminescence signal is proportional to the ATP content.
The value of negative (neutral) control is determined for each assay plate by taking the average of 16 negative control wells. The neurogenic compound response is calculated for each compound as (compound/Negative Control)*100. The values of EC150 from the dose response curve are determined for each test compound. The EC150 is the compound concentration at which 150% activity of control (100%) is reached.
A general note: Cellular ATP, detected with luciferase, serves as a proxy for viable cell number.

From patent publication US9714239B2, “N-phenyl-lactam derivatives capable of stimulating neurogenesis and their use in the treatment of neurological disorders” (Hoffmann-La Roche Inc., priority 2014, dated 2017) come the findings set out here.

`COc1cc(N2CCN(Cc3ccccc3Cl)C2=O)ccc1-c1cnco1` [Example 69, 1-[(2-Chlorophenyl)methyl]-3-[3-methoxy-4-(1,3-oxazol-5-yl)phenyl]imidazolidin-2-one] yielded an EC (150% of control) of 2.24 µM.
To `COc1cccc(C2CCN(c3ccc(-c4ccncc4)c(OC)c3)C2=O)c1` (stereo not shown) [Example 70, 3-(3-Methoxyphenyl)-1-(3-methoxy-4-pyridin-4-ylphenyl)pyrrolidin-2-one] belongs 0.0613 µM.
To `COc1cccc(C2CCN(c3ccc(-c4ccncc4)cc3)C2=O)c1` (stereo not shown) [Example 71, 3-(3-Methoxyphenyl)-1-(4-pyridin-4-ylphenyl)pyrrolidin-2-one] belongs 0.0155 µM; to `O=C1N(Cc2cccc(F)c2)CCN1c1ccc(-c2cnco2)cc1` [Example 72, 1-[(3-Fluorophenyl)methyl]-3-[4-(1,3-oxazol-5-yl)phenyl]imidazolidin-2-one], 1.07 µM; to `O=C1N(Cc2ccccc2F)CCN1c1ccc(-c2cnco2)cc1` [Example 73, 1-[(2-Fluorophenyl)methyl]-3-[4-(1,3-oxazol-5-yl)phenyl]imidazolidin-2-one], 1.49 µM.
For `COc1cc(N2CCN(Cc3ccccc3F)C2=O)ccc1-c1cnco1` [Example 74, 1-[(2-Fluorophenyl)methyl]-3-[3-methoxy-4-(1,3-oxazol-5-yl)phenyl]imidazolidin-2-one] the value was 2.7 µM; for `COc1cc(N2CCN(Cc3cccc(F)c3)C2=O)ccc1-c1cnco1` [Example 75, 1-[(3-Fluorophenyl)methyl]-3-[3-methoxy-4-(1,3-oxazol-5-yl)phenyl]imidazolidin-2-one], 0.597 µM.
